{"source": "patent US20210270813A1", "about": "“KIT, METHOD FOR SCREENING AN ACTIVE COMPOUND IN VITRO AND USES OF A KIT” (L'OREAL, priority 2018, published 2021)", "system": "neurites emerging from the neurospheres", "assay": "Maximum extension of neurites emerging from neurospheres in modified co-culture microdevice", "format": "cell-based, human", "settings": "NGF added or not to the matrigel in the middle punched hole; 3N medium or 75% CM plus HEKn; FIG. 14C", "method": "Keratinocytes moved faster than the dendrites and since removing the microdevice sometimes meant that neurospheres were pulled from the substrate, a hole between the wells of the same pair was punched and the keratinocytes were placed within this hole (FIG. 13A, red arrow). The region where there was a predominance of migrating neurites was observed and the highest migration radius was measured (FIG. 13B, blue arrow).\nTo further test this modified co-culture microdevice, the culture media (3N versus 75% CM from HEKn) and the presence (or not) of matrigel in the middle hole were compared by measuring the maximum extension of the neurites emerging from the neurospheres (FIG. 14A). There were no statistically significant differences. Then, the extension of neurites in the presence or absence of keratinocytes in the hole were compared. Again, no differences were observed (FIG. 14B). Finally, another variable was tested: adding NGF or not to the matrigel in the middle punched hole.", "data": [{"substance": "nerve growth factor [NGF]", "values": [{"measurement": "maximum extension of the neurites (neurite migration)", "value": "trend of NGF to increase migration"}]}]}
